# ChEMBL document CHEMBL3272295, “Drugs derived from cannabinoids. 5. delta6a,10a-Tetrahydrocannabinol and heterocyclic analogs containing aromatic side chains” (J Med Chem, 1976)
# The source made the active and inactive calls. The rule behind the calls is not given here.
# Tests used:
# Mus musculus [1] = assay: Analgesic activity in po dosed mouse assessed as inhibition of acetic acid-induced writhing administered 30 mins prior to acetic acid challenge measured after 5 mins for 20 mins; format: functional
# Rattus norvegicus [2] = assay: Analgesic activity in po dosed Sprague-Dawley rat after 15 to 90 mins by tail flick test; format: functional
# Rattus norvegicus [3] = organism: Rattus norvegicus; assay: animal or person; format: functional; conditions: Charles River, route oral
# Description: Antidiarrheal activity in Charles River rat assessed as inhibition of castor oil-induced diarrhea by measuring protected animals at 0.5 mg/kg, po administered 1 hr prior to castor oil challenge measured after 1 hr relative to vehicle-treated control
# [4] = Acute toxicity in po dosed mouse; format: organism-based; conditions: in vivo
# Rattus norvegicus [5] = assay: Antipsychotic activity in rat assessed as reduction of methamphetamine-induced hyperactivity at 20 mg/kg, po administered prior to methamphetamine challenge relative to vehicle-treated control; format: functional; design: scale not given: the % may be the effect or the level left
# Rattus norvegicus [6] = assay: Antihypertensive activity in spontaneously hypertensive rat model assessed as reduction in blood pressure at 3 mg/kg, po after 3 hrs; format: functional; design: scale not given: the % may be the effect or the level left
# Rattus norvegicus [7] = assay: Antihypertensive activity in spontaneously hypertensive rat model assessed as reduction in blood pressure at 3 mg/kg, po after 24 hrs; format: functional; design: scale not given: the % may be the effect or the level left
# Rattus norvegicus [8] = assay: Antihypertensive activity in spontaneously hypertensive rat model assessed as reduction in blood pressure at 1 mg/kg, po after 3 hrs; format: functional; design: scale not given: the % may be the effect or the level left
# Rattus norvegicus [9] = assay: Antihypertensive activity in spontaneously hypertensive rat model assessed as reduction in blood pressure at 1 mg/kg, po after 24 hrs; format: functional; design: scale not given: the % may be the effect or the level left
# Mus musculus [10] = assay: Analgesic activity in mouse assessed as inhibition of acetic acid-induced writhing at 10 mg/kg, po administered 30 mins prior to acetic acid challenge measured after 5 mins for 20 mins; format: functional
# Mus musculus [11] = assay: Antianxiety activity in albino BALB/cJ mouse assessed as reduction in footshock-induced fighting behavior at 10 mg/kg, po after 30 to 90 mins; format: functional; design: scale not given: the % may be the effect or the level left
# Rattus norvegicus [12] = assay: Antianxiety activity in Long-Evans rat assessed as reduction in motor activity at 5 mg/kg, po after 2 hrs relative to vehicle-treated control; format: functional; design: scale not given: the % may be the effect or the level left
# Rattus norvegicus [13] = assay: Antipsychotic activity in rat assessed as reduction of methamphetamine-induced hyperactivity at 5 mg/kg, po administered prior to methamphetamine challenge relative to vehicle-treated control; format: functional; design: scale not given: the % may be the effect or the level left
# Rattus norvegicus [14] = assay: Antianxiety activity in Long-Evans rat assessed as reduction in motor activity at 10 mg/kg, po after 2 hrs relative to vehicle-treated control; format: functional; design: scale not given: the % may be the effect or the level left
# Rattus norvegicus [15] = assay: Antipsychotic activity in rat assessed as reduction of methamphetamine-induced hyperactivity at 10 mg/kg, po administered prior to methamphetamine challenge relative to vehicle-treated control; format: functional; design: scale not given: the % may be the effect or the level left
# Rattus norvegicus [16] = assay: Antianxiety activity in Long-Evans rat assessed as reduction in motor activity at 1 mg/kg, po after 2 hrs relative to vehicle-treated control; format: functional; design: scale not given: the % may be the effect or the level left
# Mus musculus [17] = assay: Antianxiety activity in albino BALB/cJ mouse assessed as reduction in footshock-induced fighting behavior at 5 mg/kg, po after 30 to 90 mins; format: functional; design: scale not given: the % may be the effect or the level left
# Rattus norvegicus [18] = assay: Antipsychotic activity in rat assessed as reduction of methamphetamine-induced hyperactivity at 2 mg/kg, po administered prior to methamphetamine challenge relative to vehicle-treated control; format: functional; design: scale not given: the % may be the effect or the level left
# Felis catus [19] = assay: Hypnotic activity in cat assessed as increase in total sleep time at 0.5 mg/kg administered orally through diet measured for 12 hrs by EEG analysis; format: functional; conditions: route oral
# Felis catus [20] = assay: Hypnotic activity in cat assessed as increase in non-REM sleep time at 0.5 mg/kg administered orally through diet measured for 12 hrs by EEG analysis; format: functional; conditions: route oral
smiles,measurement,setting,value
CC(CCCc1ccc(F)cc1)C(C)c1cc(O)c2c(c1)OC(C)(C)C1=C2CN(Cc2ccccc2)CC1 (configuration not stated),inhibition,Mus musculus [1],inactive
same,Activity,Rattus norvegicus [2],inactive
CC(CCc1ccc(F)cc1)C(C)c1cc(O)c2c(c1)OC(C)(C)C1=C2CN(Cc2ccccc2)CC1 (configuration not stated),inhibition,Mus musculus [1],inactive
same,Activity,Rattus norvegicus [2],inactive
Cc1ccc(CCCC(C)c2cc(O)c3c(c2)OC(C)(C)C2=C3CC(C)CC2)cc1 (configuration not stated),inhibition in vivo at 0.5 mg/kg,Rattus norvegicus [3],90%
same,LD50,[4],≥ 1000 mg/kg
same,Activity,Rattus norvegicus [5],72%
same,Activity,Rattus norvegicus [6],26%
same,Activity,Rattus norvegicus [7],16%
same,Activity,Rattus norvegicus [8],0%
same,Activity,Rattus norvegicus [9],0%
same,inhibition in vivo at 10 mg/kg,Mus musculus [10],30%
same,Activity,Mus musculus [11],10%
same,Activity,Rattus norvegicus [12],16%
same,Activity,Rattus norvegicus [13],66%
CNC1=Nc2ccc(Cl)cc2C(c2ccccc2)=[N+]([O-])C1.Cl [CHLORDIAZEPOXIDE HYDROCHLORIDE],Activity,Mus musculus [11],53%
same,Activity,Rattus norvegicus [12],26%
same,Activity,Rattus norvegicus [14],54%
CC(CCc1ccc(F)cc1)c1cc(O)c2c(c1)OC(C)(C)C1=C2CN(Cc2ccccc2)CC1 (configuration not stated),inhibition,Mus musculus [1],inactive
same,Activity,Rattus norvegicus [2],inactive
Cc1ccc(CCCC(C)c2cc(O)c3c4c(c(=O)oc3c2)CCC(C)C4)cc1 (configuration not stated),inhibition,Mus musculus [1],inactive
same,Activity,Rattus norvegicus [2],inactive
Cc1ccc(CCCC(C)c2cc(O)c3c(c2)OC(C)(C)C2=C3CNCC2)cc1 (configuration not stated),inhibition,Mus musculus [1],inactive
same,Activity,Rattus norvegicus [2],inactive
CC(CCCc1ccc(F)cc1)C(C)c1cc(O)c2c(c1)OC(C)(C)C1=C2CNCC1 (configuration not stated),inhibition,Mus musculus [1],inactive
same,Activity,Rattus norvegicus [2],inactive
CC1CCC2=C(C1)c1c(O)cc(C(C)CCCCc3ccc(F)cc3)cc1OC2(C)C (configuration not stated),inhibition in vivo at 0.5 mg/kg,Rattus norvegicus [3],80%
same,LD50,[4],750 mg/kg
same,Activity,Rattus norvegicus [15],71%
same,Activity,Rattus norvegicus [6],33%
same,Activity,Rattus norvegicus [7],14%
same,Activity,Rattus norvegicus [8],7%
same,Activity,Rattus norvegicus [9],4%
same,ED50,Mus musculus [1],20.5 mg/kg
same,Activity,Rattus norvegicus [16],40%
same,Activity,Mus musculus [17],4%
same,Activity,Rattus norvegicus [12],73%
same,Activity,Rattus norvegicus [13],65%
CC1CCc2c(c3c(O)cc(C(C)CCCc4ccccc4)cc3oc2=O)C1 (configuration not stated),inhibition,Mus musculus [1],inactive
same,Activity,Rattus norvegicus [2],inactive
CC1CCc2c(c3c(O)cc(C(C)C(C)CCCc4ccc(F)cc4)cc3oc2=O)C1 (configuration not stated),inhibition,Mus musculus [1],inactive
same,Activity,Rattus norvegicus [2],inactive
CC(CCc1ccc(F)cc1)C(C)c1cc(O)c2c(c1)OC(C)(C)C1=C2CNCC1 (configuration not stated),inhibition,Mus musculus [1],inactive
same,Activity,Rattus norvegicus [2],inactive
CC1CCc2c(c3c(O)cc(C(C)C(C)CCc4ccncc4)cc3oc2=O)C1 (configuration not stated),inhibition,Mus musculus [1],inactive
same,Activity,Rattus norvegicus [2],inactive
C#CCN1CCC2=C(C1)c1c(OC(=O)C(C)CCN3CCOCC3)cc(C(C)CCCc3ccc(F)cc3)cc1OC2(C)C.Cl (configuration not stated),LD50,[4],≥ 1000 mg/kg
same,ED50,Mus musculus [1],7.2 mg/kg
same,ED50,Rattus norvegicus [2],7 mg/kg
same,Activity,Mus musculus [11],26%
same,Activity,Rattus norvegicus [12],71%
same,Activity,Rattus norvegicus [13],24%
CC1CCC2=C(C1)c1c(O)cc(C(C)C(C)Cc3ccc(F)cc3)cc1OC2(C)C (configuration not stated),LD50,[4],≥ 1000 mg/kg
same,Activity,Rattus norvegicus [15],28%
same,Activity,Rattus norvegicus [5],56%
same,Activity,Rattus norvegicus [6],21%
same,Activity,Rattus norvegicus [7],24%
same,Activity,Rattus norvegicus [8],22%
same,Activity,Rattus norvegicus [9],9%
same,inhibition in vivo at 10 mg/kg,Mus musculus [10],38%
same,Activity,Mus musculus [11],4%
same,Activity,Rattus norvegicus [12],66%
CC(CCCc1ccc(F)cc1)c1cc(O)c2c3c(c(=O)oc2c1)SCC3C (configuration not stated),inhibition,Mus musculus [1],inactive
same,Activity,Rattus norvegicus [2],inactive
CC(CCCc1ccc(F)cc1)C(C)c1cc(O)c2c3c(c(=O)oc2c1)CCN(Cc1ccccc1)C3 (configuration not stated),inhibition,Mus musculus [1],inactive
same,Activity,Rattus norvegicus [2],inactive
CCCCCc1cc(O)c2c(c1)OC(C)(C)C1=C2CN(Cc2ccccc2)CC1,inhibition,Mus musculus [1],inactive
same,Activity,Rattus norvegicus [2],inactive
CC(CCCCc1ccc(F)cc1)c1cc(O)c2c3c(c(=O)oc2c1)CCN(Cc1ccccc1)C3 (configuration not stated),inhibition,Mus musculus [1],inactive
same,Activity,Rattus norvegicus [2],inactive
CC(CCCCc1ccc(F)cc1)c1cc(O)c2c(c1)OC(C)(C)C1=C2CN(Cc2ccccc2)CC1 (configuration not stated),inhibition,Mus musculus [1],inactive
same,Activity,Rattus norvegicus [2],inactive
CC(CCc1ccc(F)cc1)C(C)c1cc(O)c2c3c(c(=O)oc2c1)CCN(Cc1ccccc1)C3 (configuration not stated),inhibition,Mus musculus [1],inactive
same,Activity,Rattus norvegicus [2],inactive
CC1CSC2=C1c1c(O)cc(C(C)CCCc3ccc(F)cc3)cc1OC2(C)C (configuration not stated),LD50,[4],500 mg/kg
same,Activity,Rattus norvegicus [18],55%
same,Time,Felis catus [19],11 min
same,Time,Felis catus [20],8 min
same,ED50,Mus musculus [1],8.4 mg/kg
same,Activity,Mus musculus [11],100%
same,Activity,Rattus norvegicus [12],85%
same,Activity,Rattus norvegicus [13],78%
